From the NIST ThermoML archive (doi:10.1016/j.jct.2010.02.010)
Numbers after ± are expanded uncertainties.

Conditions: for mass density: 101.33 kPa, Buoyancy - hydrostatic balance; for mass density / surface tension liquid-gas: Liquid; for surface tension liquid-gas: Maximal bubble pressure

CCCC[n+]1ccccc1.[O]=[Re](=[O])(=[O])[O-] [1-butylpyridinium perrhenate]
mass density (293.15 K): 1910.1 ± 8.1 kg/m3
surface tension liquid-gas (293.15 K): 41.6 ± 0.6 mN/m
mass density (298.15 K): 1902.5 ± 8.1 kg/m3
surface tension liquid-gas (298.15 K): 41.2 ± 0.6 mN/m
mass density (303.15 K): 1894.9 ± 8 kg/m3
surface tension liquid-gas (303.15 K): 40.7 ± 0.6 mN/m
mass density (308.15 K): 1886.9 ± 8 kg/m3
surface tension liquid-gas (308.15 K): 40.5 ± 0.6 mN/m
mass density (313.15 K): 1881.8 ± 8 kg/m3
surface tension liquid-gas (313.15 K): 40 ± 0.6 mN/m
mass density (318.15 K): 1877.6 ± 7.9 kg/m3
surface tension liquid-gas (318.15 K): 39.7 ± 0.6 mN/m
mass density (323.15 K): 1869.2 ± 7.9 kg/m3
surface tension liquid-gas (323.15 K): 39.4 ± 0.6 mN/m
mass density (328.15 K): 1862.7 ± 7.9 kg/m3
surface tension liquid-gas (328.15 K): 39 ± 0.6 mN/m
mass density (333.15 K): 1856.9 ± 7.9 kg/m3
surface tension liquid-gas (333.15 K): 38.6 ± 0.6 mN/m
mass density (338.15 K): 1853.2 ± 7.8 kg/m3
surface tension liquid-gas (338.15 K): 38.3 ± 0.6 mN/m
mass density (343.15 K): 1846.8 ± 7.8 kg/m3
surface tension liquid-gas (343.15 K): 38.2 ± 0.6 mN/m
Glass transition temperature (Glass, DTA): -66 ± 1 °C
